Test results from article PMC4669722, “Antitumour potential of BPT: a dual inhibitor of cdk4 and tubulin polymerization” (Cell Death & Disease, 2015).
Starred links: 1 amine or outer side, 2 acyl side, 3 side chain; linkers in the order of their positions; H or OH if unused. Positions of bridges follow the written chain, without caps; N, C: chain ends. Non-standard residues stand in square brackets, D forms with d. Residues, ends and D or L forms follow the SMILES beside them. Chains are numbered I, II in the order given. Actinocin(9to1) = Cc1c2oc3c(C)ccc(C(=O)[*:1])c3nc-2c(C(=O)[*:2])c(N)c1=O; NMeV = CN[C@H](C(=O)O)C(C)C; Sar = CNCC(=O)O

Columns and labels:
NCI-H358 cells = assay: Flow cytometric cell cycle analysis, synchronized NCI-H358; format: cell-based, human; conditions: NCI-H358, hydroxyurea 250 μM, 18 h
Method: The untreated (control) and treated (with test compounds) cells were harvested by trypsinization, washed once with PBS and then fixed in 70% chilled (−20 °C) ethanol for minimum 1 h. After the fixation step, cells were centrifuged for 5 min at 3000 × g at room temperature, and the pellet was suspended in PBS containing 50 μg/ml propidium iodide (Sigma-Aldrich, Dorset, UK; cat. no. P-4170) and 0.5 mg/ml DNase-free ribonuclease (Sigma-Aldrich; cat. no. R-5503). The cells were stained for 1 h in the dark at 4 °C. Cell cycle analysis was performed on the Beckman Coulter (Epics Altra) fluorescence-activated cell sorter (Beckman Coulter UK Ltd, Buckinghamshire, UK). To gate all the events that represent single cells, and not cell doublets or cell clumps, the following analyses were performed on the samples. Cytograms of propidium iodide fluorescence peak signal versus integrated fluorescence or the linear signal were plotted. All data points on the straight line were isolated in a single gate and the gated data was further used for plotting a histogram that represents a complete cell cycle. The total number of events was not allowed to exceed 200 events per s. Data acquisition was stopped after a minimum of 10 000 events had been collected.

tubulin = assay: Cell-free tubulin polymerization assay in vitro; format: biochemical; conditions: 10 μM; control 19 mOD/min
Method: The purified tubulin was obtained commercially (Cytoskeleton Inc., Denver, CO, USA) and the polymerization assays were carried out according to the method described previously.[36] […] The resulting polymerization curves are representative of the three phases of microtubule polymerization, namely nucleation, growth and steady-state equilibrium. Paclitaxel and nocodazole were used in the assay as a known enhancer and inhibitor of tubulin polymerization, respectively. The ability of BPT to inhibit tubulin polymerization in vitro was determined according to the manufacturer's instructions. Briefly, tubulin protein (3 mg/ml) was polymerized in GTP buffer (80 mM PIPES, pH 6.9, 2 mM MgCl2, 0.5 mM EGTA, 10.2% glycerol and 1 mM GTP) in the presence of a range of BPT concentrations at 37 °C in a temperature-regulated Biotech spectrophotometer (Potton, Bedfordshire, UK). The absorbance (at 340 nm) kinetics of 61 cycles for each sample was studied and the readings were recorded at an interval of 1 min.

pBluescript plasmid DNA = assay: EtBr displacement assay; format: binding; conditions: 1.3 μM EtBr, pH 7.4
Method: The assays were performed in a 96-well plate with clear bottom (Costar, Washington, DC, USA). The assay involved the addition of 10 μl of 10 × concentrated stock solution of compounds (dissolved in DMSO and further diluted in EtBr displacement assay buffer) to 90 μl of reaction mixture containing 6 μg of purified pBlueScript DNA and 1.3 μM EtBr in EtBr displacement assay buffer with final pH 7.4. Equivalent amounts of DMSO were added to the vehicle controls. In addition to control samples (DNA+EtBr), test samples (DNA+EtBr+test compounds), blank 1 (EtBr only), blank 2 (DNA only), wells containing DNA and compound were also prepared to test any change in the background fluorescence readings. The reduction in relative fluorescence counts was monitored ([…]) and recorded after 1 min equilibration time. Fascaplysin and actinomycin D, which are known to intercalate d-s DNA, were used as standard compounds in assay. The mean control and test readings were corrected by subtracting blank readings. The percentage fluorescence in the test samples in reaction with control samples was calculated by using following formula: […]

Structure (SMILES) | Vmax of tubulin polymerization (tubulin) | other results
NC(=O)NO [Hydroxyurea, hydroxyurea, reference compound] | – | cells in G0/G1 (NCI-H358 cells): 77%
COC(=O)Nc1nc2ccc(C(=O)c3cccs3)cc2[nH]1 [Nocodazole, nocodazole, reference compound] | 4.5 mOD/min | –
Cc1c2oc3c(C)ccc(C(=O)N[C@@H]4C(=O)N[C@H](C(C)C)C(=O)N5CCC[C@H]5C(=O)N(C)CC(=O)N(C)[C@@H](C(C)C)C(=O)O[C@@H]4C)c3nc-2c(C(=O)N[C@@H]2C(=O)N[C@H](C(C)C)C(=O)N3CCC[C@H]3C(=O)N(C)CC(=O)N(C)[C@@H](C(C)C)C(=O)O[C@@H]2C)c(N)c1=O [actinomycin D, reference compound] (I: T[dV]P[Sar][NMeV] / II: T[dV]P[Sar][NMeV]; ester I:1-I:C, II:1-II:C; linker I:N-II:N via Actinocin(9to1)) | – | EtBr displacement from DNA (pBluescript plasmid DNA): readily dislodges the bound EtBr
CC(=O)O[C@H]1C(=O)[C@@]2(C)[C@H]([C@H](OC(=O)c3ccccc3)[C@]3(O)C[C@H](OC(=O)[C@H](O)[C@@H](NC(=O)c4ccccc4)c4ccccc4)C(C)=C1C3(C)C)[C@]1(OC(C)=O)CO[C@@H]1C[C@@H]2O [paclitaxel, reference compound] | 61 mOD/min | –
